Test results: patent publication US20100041697A1, “PNEUMONIA TREATMENT” (TaiGen Biotechnology Co., Ltd., priority 2008, published 2010)
Structures can show the parent of a compound that is named as a salt. Values belong to the compound of their own block, whether it stands above or below them.

Assays:
[1] = system: multidrug-resistant methicillin-resistant Staphylococcus aureus; assay: Agar dilution MIC against multidrug-resistant MRSA (Taiwan isolates); assay type: cell-based
Experimental: Compound 1 was tested for its inhibitory effect against multidrug-resistant methicillin-resistant Staphylococcus aureus obtained by 10 medical centers in all regions of Taiwan. MICs were determined using the agar dilution methods recommended by the Clinical and Laboratory Standards Institute (CLSI-M100-S18).

[2] = Plasma protein binding by ultrafiltration; assay type: in vitro ADME; conditions: human plasma
Experimental: Protein binding was also measured as follows: Ultrafiltrate (UF) samples were obtained by centrifuging the above-mentioned Compound 1-contaning heparinized human plasma in molecular weight cutoff ultrafiltration devices (30,000 Da) at ˜3000 rpm (30 min, ˜37° C.). The UF samples (0.025 mL) were mixed with an internal standard solution—0.050 mL of ˜800 ng/mL O^13CD3-Compound 1 (in which the OCH3 group was replaced with the O^13CD3 group), diluted by 20 folds, and analyzed by reverse-phase HPLC on a 3.5 micron C-18 column. Quantitation was obtained by the multiple reaction monitoring method through positive ion Turbo-Ion Spray ionization. Ultrafiltrate standards were used to quantify the unbound drug in plasma quality control samples and unknown specimens. Non-specific protein binding (NSB) was measured (NSB=0.0415) and used as a correction factor to determine the final % protein bindings. The nominal range of quantitation for the analyte was 50 to 10,000 ng/mL. 0.400 mL aliquot of human plasma was used in the assay. Sample concentrations were determined by back-calculation using a weighted linear (1/x^2) regression of a calibration curve generated from spiked UF standards. Over the linear range, the inter-batch % CV for Compound 1 was 4.9% to 11.8%.

[3] = system: Methicillin-Resistant Staphylococcus aureus; assay: Broth microdilution against MRSA isolates (CAN-ICU Study); assay type: cell-based
Text: MRSA isolates (n=193) were obtained as part of the Canadian National Intensive Care Unit (CAN-ICU) Study. 19 medical centers from all regions of Canada with active ICUs participated in the CAN-ICU study included. They were requested to only obtain “clinically significant” specimens from patients with a presumed infectious disease. Surveillance swabs, eye, ear, nose and throat swabs were excluded. Anaerobic organisms and fungal organisms were also excluded.
From September 2005-June 2006 (inclusive), each center collected a maximum of 300 consecutive pathogens isolated from blood, urine, tissue/wound, and respiratory specimens (one pathogen per cultured site per patient) of ICU patients. These isolates were shipped to the reference laboratory (Health Sciences Centre, Winnipeg, Canada) on Amies charcoal swabs, subcultured in appropriate media, and stocked in skim milk at −80° C.
The isolates' methicillin resistance was confirmed using the disk diffusion method described by the Clinical and Laboratory Standards Institute. […] Their PFGE fingerprints thus obtained were analyzed with BioNumerics v3.5 (Applied Maths St. Marten-Latem, Belgium) using a position tolerance of 1.0 and an optimization of 1.0. Strain relatedness was determined as previously described (Tenover et al., 1995). […]

[4] = Pharmacokinetic analysis of plasma (Cmax, AUC0-24h) at steady state; assay type: in vivo, human; conditions: for Free AUC0-24: corrected for plasma protein binding; for Cmax / AUC(0-t): human, po, steady state, plasma; for Cmax: in vivo
[5] = system: community-acquired pneumonia; assay: Randomized, double-blind clinical trials in community-acquired pneumonia; assay type: in vivo, human; conditions: for cure rate / subjects cured: after 7 days; for cure rate: adult patients
Experimental: Randomized, double-blind clinical trials were conducted at 17 sites in Taiwan and South Africa to assess the effectiveness of Compound 1 in treating adult patients with community-acquired pneumonia.
The trials included a total of 265 subjects having community-acquired pneumonia. The average age of the subjects was 43.5 years old and the average body weight was 66.17 kg. About 50% of the subjects were male, and about 62% of the subjects were Black or African American, about 21% White, and about 15% Asian.
Among the 265 subjects, 86 were treated with 3 Compound 1-containing capsules (750 mg of the free base compound, i.e., (3S,5S)-7-[3-amino-5-methyl-piperidinyl]-1-cyclopropyl-1,4-dihydro-8-methoxy-4-oxo-3-quinolinecarboxylic acid) per day, 89 with 2 Compound 1-containing capsules (500 mg of the free base compound) per day, and 90 with 2 levofloxacin capsules (500 mg of levofloxacin) per day for 7 consecutive days. In each group, the drug capsules were orally taken by the subjects in the morning with a full glass of water (240 mL). Within 2 hours after taking the drugs, the subjects were not allowed to eat, but water intake (no more than 240 mL) was permitted. Overall, 10.6% of randomized subjects withdrew from the treatments.

Streptococcus pneumoniae = assay: Broth microdilution MIC against Streptococcus pneumoniae (Taiwan isolates); assay type: cell-based; conditions: 0.008 to 8 μg/ml
Experimental: (§1) The Staphylococcus aureus and Streptococcus pneumoniae isolates were obtained by 10 medical centers in all regions of Taiwan. MICs were determined using the broth microdilution method.

[6] = system: Methicillin-Resistant Staphylococcus aureus; assay: Broth microdilution MIC against methicillin-resistant Staphylococcus aureus (Taiwan isolates); assay type: cell-based; conditions: 0.008 to 8 μg/ml
Experimental: as §1

[7] = 500 mg per day orally, 89 treated (Compound 1), 90 treated (levofloxacin)

fraction unbound at 30 min ([2]; 500 mg per day, 500 mg q24 p.o.): 0.84
Protein Binding ([2]; 750 mg q24 p.o.): 16%
Protein Binding ([2]; 1000 mg q24 p.o.): 16%
Free AUC0-24 ([4]; 500 mg q24 p.o.): 32400 ng·h/mL
Free AUC0-24 ([4]; 750 mg q24 p.o.): 49100 ng·h/mL
Free AUC0-24 ([4]; 1000 mg q24 p.o.): 62900 ng·h/mL
Cmax ([4]; 500 mg q24 p.o.): 5560 ng/mL
Cmax ([4]; 750 mg q24 p.o.): 6820 ng/mL
Cmax ([4]; 1000 mg q24 p.o.): 8200 ng/mL
AUC(0-t) ([4]; 500 mg q24 p.o.): 38600 ng·h/mL
AUC(0-t) ([4]; 750 mg q24 p.o.): 58400 ng·h/mL
AUC(0-t) ([4]; 1000 mg q24 p.o.): 74800 ng·h/mL
SMILES: COc1c(N2C[C@@H](C)C[C@H](N)C2)ccc2c(=O)c(C(=O)O)cn(C3CC3)c12 [Compound 1, malate salt hemihydrate of (3S,5S)-7-[3-amino-5-methyl-piperidinyl]-1-cyclopropyl-1,4-dihydro-8-methoxy-4-oxo-3-quinolinecarboxylic acid]
inhibitory effect against MRSA isolates that are Ciprofloxacin-resistant, Vancomycin-intermediate-resistant, and Daptomycin-nonsusceptible [1]: effective in inhibiting
activity against community-associated-MRSA versus healthcare-associated-MRSA strains [3]: more active against community-associated-MRSA strains than healthcare-associated-MRSA strains
inhibitory activity against the MRSA isolates ([3]; 193 MRSA isolates): effectively inhibited MRSA
cure rate ([5]; 500 mg per day orally): 75.3%
subjects cured [5, 7]: 67 subjects
cure rate ([5]; 750 mg per day orally): 82.6%
subjects cured ([5]; 750 mg per day orally, 86 treated): 71 subjects
effectiveness in treating community-acquired pneumonia ([5]; oral capsules, 7 consecutive days): effective in treating community-acquired pneumonia

SMILES: COc1c(N2C[C@H](C)C[C@H](N)C2)ccc2c(=O)c(C(=O)O)cn(C3CC3)c12 [Compound 1′, malate salt hemihydrate of (3S,5R)-7-[3-amino-5-methyl-piperidinyl]-1-cyclopropyl-1,4-dihydro-8-methoxy-4-oxo-3-quinolinecarboxylic acid]
inhibitory effect against Streptococcus pneumoniae (Streptococcus pneumoniae): effective in inhibiting
inhibitory effect against methicillin-resistant Staphylococcus aureus [6]: effective in inhibiting

SMILES: C[C@H]1COc2c(N3CCN(C)CC3)c(F)cc3c(=O)c(C(=O)O)cn1c23 [levofloxacin, reference compound]
cure rate ([5]; 500 mg per day orally): 80.0%
subjects cured [5, 7]: 72 subjects
